# Assay results: US20080318925A1 (ASTRAZENECA AB, priority 2007, published 2008)
# Biological target: T1, GABAA2 receptors (α2, β3, γ3 receptor subunits transfected into Sf9 cells) (Homo sapiens, UniProt P47869+Q99928)
# T1 construct: host or cells: Sf9 cells (membranes)
# T1 sequence (P47869 29-451): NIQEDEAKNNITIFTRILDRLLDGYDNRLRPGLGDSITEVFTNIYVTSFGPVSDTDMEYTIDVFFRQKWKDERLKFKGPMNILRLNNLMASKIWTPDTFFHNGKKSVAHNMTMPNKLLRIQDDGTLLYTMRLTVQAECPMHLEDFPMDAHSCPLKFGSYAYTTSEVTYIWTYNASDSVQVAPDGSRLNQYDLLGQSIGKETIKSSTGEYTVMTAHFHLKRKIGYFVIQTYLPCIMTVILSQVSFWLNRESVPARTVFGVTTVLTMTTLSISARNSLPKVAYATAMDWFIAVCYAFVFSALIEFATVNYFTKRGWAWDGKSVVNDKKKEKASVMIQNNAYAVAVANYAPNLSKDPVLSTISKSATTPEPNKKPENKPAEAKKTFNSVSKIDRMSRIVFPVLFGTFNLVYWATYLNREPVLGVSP
# T1 sequence (P28472 26-473 partner): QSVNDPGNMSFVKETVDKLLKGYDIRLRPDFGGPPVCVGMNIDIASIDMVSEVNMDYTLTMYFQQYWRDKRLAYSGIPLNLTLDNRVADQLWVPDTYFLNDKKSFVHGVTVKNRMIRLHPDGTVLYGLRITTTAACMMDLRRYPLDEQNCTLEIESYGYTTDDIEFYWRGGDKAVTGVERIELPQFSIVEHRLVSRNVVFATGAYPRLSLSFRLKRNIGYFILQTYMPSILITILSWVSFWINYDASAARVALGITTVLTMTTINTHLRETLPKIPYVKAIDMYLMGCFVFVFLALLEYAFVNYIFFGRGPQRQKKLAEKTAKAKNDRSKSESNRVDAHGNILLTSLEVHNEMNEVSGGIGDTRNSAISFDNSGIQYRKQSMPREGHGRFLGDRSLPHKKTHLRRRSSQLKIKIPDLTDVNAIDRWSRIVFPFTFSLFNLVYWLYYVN
# T1 sequence (Q99928 18-467): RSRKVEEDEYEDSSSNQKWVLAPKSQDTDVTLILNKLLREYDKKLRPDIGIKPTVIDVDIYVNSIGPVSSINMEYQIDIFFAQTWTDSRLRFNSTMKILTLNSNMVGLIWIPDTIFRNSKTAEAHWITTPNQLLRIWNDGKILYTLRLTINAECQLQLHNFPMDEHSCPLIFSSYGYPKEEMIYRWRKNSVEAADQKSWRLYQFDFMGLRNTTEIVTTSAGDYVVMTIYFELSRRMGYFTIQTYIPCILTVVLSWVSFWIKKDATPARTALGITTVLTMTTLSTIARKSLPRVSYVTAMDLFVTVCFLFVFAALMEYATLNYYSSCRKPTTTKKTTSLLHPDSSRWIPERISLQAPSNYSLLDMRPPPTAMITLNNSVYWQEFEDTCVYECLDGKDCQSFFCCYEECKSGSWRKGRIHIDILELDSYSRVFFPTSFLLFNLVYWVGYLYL
# Assay: GABAA2 binding method ([3H]-flunitrazepam displacement)
# Details: [3H]-flunitrazepam ~2 nM, Sf9 membranes, 1 hr at 4° C.
# Protocol: In some embodiments, the binding test was directed to a subtype of GABAA receptors, such as GABAA1 receptors (i.e., those containing the α1 subunit), GABAA2 receptors (i.e., those containing the α2 subunit), GABAA3 receptors (i.e., those containing the α3 subunit) and GABAA5 receptors (i.e., those containing the α5 subunit).
# • Assay and Wash Buffer: 50 mM Tris-Citrate, 200 mM NaCl, pH 7.8 Compounds at 10 mM in DMSO: Put 75 μl in column 1 of compound plate.
# Flumazenil, 10 mM (for NSB)
# [^3H]-Flunitrazepam (Cat #NET567): Prepare 10× stock=20 nM, [F} in assay=˜2 nM
# 1. […] Add 5 ul of 30 uM flumazenil to wells 12 D-E for 50% control wells.
# 2. Spot 2 μl of compound dilutions into dry plate (Automation Program 3). Manually spot 2 μl 10 mM flumazenil into wells 12 F-H for nonspecific control.
# 3. Make 1:100 dilution in assay buffer (2 μl into 200 μl) and dispense 25 μl compound into assay plates (Automation Program 4).
# 4. Dispense 200 μl membranes into assay plate (Automation Program 5).
# 5. Add 25 μl [^3H]-Flunitrazepam (Automation Program 6). Incubate for 1 hr at 4° C.
# 6. Collect membranes on a cell harvester onto GF/B filter plates (pre-wet with dH2O and wash 5× 400 μl/well, with cold assay buffer. (First 3 washes are considered hot; last two are cold.)
# 7. Dry plates for 2-3 hours at RT.
# 8. Add 40 μl Microscint 40/well (Automation Program 7); seal plates. Count on a TopCount.
# Data is analyzed by calculating percent of control, IC50, and Ki in an XLfit template. The following formula is used in the templates: […]
row,Structure (SMILES),Ki
1,CCCNC(=O)c1nnc2c(-c3ccc(OC)c(OC)c3)cccc2c1N,3.88 nM
2,CNC(=O)c1nnc2c(-c3cc(C)ccc3OC)cccc2c1N,35.8 nM
3,CCCNC(=O)c1nnc2c(-c3ccc(F)c(F)c3)cccc2c1N,20 nM
4,CCCNC(=O)c1nnc2c(-c3cnc(OC)nc3OC)c(F)ccc2c1N,0.918 nM
5,CCCNC(=O)c1nnc2c(-c3cccc(OC(F)(F)F)c3)cccc2c1N,47.8 nM
6,CCCNC(=O)c1nnc2c(-c3ccc(F)cc3OC)cccc2c1N,4.34 nM
7,Cc1ccc(-c2cccc3c(N)c(C(=O)NC4CC4)nnc23)cn1,4.02 nM
8,CCCNC(=O)c1nnc2c(-c3cc(OC)cc(OC)c3)c(F)ccc2c1N,0.552 nM
9,CCCNC(=O)c1nnc2c(-c3cccc(C)c3C)c(F)ccc2c1N,0.615 nM
10,CCCNC(=O)c1nnc2c(-c3cc(OC)cc(OC)c3)cccc2c1N,5 nM
11,CCCNC(=O)c1nnc2c(-c3cnccc3C)cccc2c1N,1.68 nM
12,CCCNC(=O)c1nnc2c(-c3cc(Cl)cc(Cl)c3)cccc2c1N,22 nM
13,CCCNC(=O)c1nnc2c(-c3cc(C)ccc3F)cccc2c1N,0.852 nM
14,CCCNC(=O)c1nnc2c(-c3ccc(F)cc3OCC)c(F)ccc2c1N,1.03 nM
15,CCCNC(=O)c1nnc2c(-c3ccccc3)c(OC)ccc2c1N,91.4 nM
16,CCCNC(=O)c1nnc2c(-c3cccnc3OC)cccc2c1N,2.1 nM
17,CCCNC(=O)c1nnc2c(-c3ccc(OC)c(OC)c3OC)cccc2c1N,6.75 nM

row,Structure (SMILES),Ki
1,COc1ccc(F)cc1-c1cccc2c(N)c(C(=O)NC3CC3)nnc12,8.22 nM
2,CCCNC(=O)c1nnc2c(-c3cc(Cl)ccc3Cl)c(F)ccc2c1N,1.34 nM
3,CCCNC(=O)c1nnc2c(-c3cc(C)c(OC)c(C)c3)cccc2c1N,35.8 nM
4,CCCNC(=O)c1nnc2c(-c3ccc(N(C)C)cc3)cccc2c1N,26.6 nM
5,COc1ccncc1-c1cccc2c(N)c(C(=O)NC3CC3)nnc12,0.785 nM
6,CCCNC(=O)c1nnc2c(-c3cc(Cl)ccc3OC)c(F)ccc2c1N,0.327 nM
7,CCCNC(=O)c1nnc2c(-c3ccc(Cl)cc3)c(F)ccc2c1N,8.72 nM
8,CCCNC(=O)c1nnc2c(-c3cnc(OC)c(F)c3)cccc2c1N,22.1 nM
9,CCCNC(=O)c1nnc2c(-c3cc(OC)ccc3Cl)c(F)ccc2c1N,1.25 nM
10,CCCCNC(=O)c1nnc2c(-c3cc(C)ccc3OC)cccc2c1N,13.3 nM
11,CCCNC(=O)c1nnc2c(-c3ccc(F)cc3F)cccc2c1N,1.72 nM
12,CCCNC(=O)c1nnc2c(-c3cc(C)ccc3C)c(Cl)ccc2c1N,11.2 nM
13,CCCNC(=O)c1nnc2c(-c3cc(Cl)cc(Cl)c3)c(F)ccc2c1N,16.1 nM
14,CCCNC(=O)c1nnc2c(-c3cccnc3F)cccc2c1N,1.13 nM
15,CCCNC(=O)c1nnc2c(-c3cc(F)ccc3OC)c(F)ccc2c1N,0.98 nM
16,CCCNC(=O)c1nnc2c(-c3ccc(OC)cc3F)c(F)ccc2c1N,0.613 nM
17,CCCNC(=O)c1nnc2c(-c3ccc(OC)c(F)c3)c(F)ccc2c1N,2.88 nM
